Test results published in ChEMBL document CHEMBL3784945, “Isoindolinone compounds active as Kv1.5 blockers identified using a multicomponent reaction approach” (Bioorg Med Chem Lett, 2016).

Biological target: Voltage-gated inwardly rectifying potassium channel KCNH2 (Homo sapiens, UniProt Q12809)
Assay: Inhibition of human ERG
Conditions: not given

Voltage-gated inwardly rectifying potassium channel KCNH2, sequence (Q12809 whole entry): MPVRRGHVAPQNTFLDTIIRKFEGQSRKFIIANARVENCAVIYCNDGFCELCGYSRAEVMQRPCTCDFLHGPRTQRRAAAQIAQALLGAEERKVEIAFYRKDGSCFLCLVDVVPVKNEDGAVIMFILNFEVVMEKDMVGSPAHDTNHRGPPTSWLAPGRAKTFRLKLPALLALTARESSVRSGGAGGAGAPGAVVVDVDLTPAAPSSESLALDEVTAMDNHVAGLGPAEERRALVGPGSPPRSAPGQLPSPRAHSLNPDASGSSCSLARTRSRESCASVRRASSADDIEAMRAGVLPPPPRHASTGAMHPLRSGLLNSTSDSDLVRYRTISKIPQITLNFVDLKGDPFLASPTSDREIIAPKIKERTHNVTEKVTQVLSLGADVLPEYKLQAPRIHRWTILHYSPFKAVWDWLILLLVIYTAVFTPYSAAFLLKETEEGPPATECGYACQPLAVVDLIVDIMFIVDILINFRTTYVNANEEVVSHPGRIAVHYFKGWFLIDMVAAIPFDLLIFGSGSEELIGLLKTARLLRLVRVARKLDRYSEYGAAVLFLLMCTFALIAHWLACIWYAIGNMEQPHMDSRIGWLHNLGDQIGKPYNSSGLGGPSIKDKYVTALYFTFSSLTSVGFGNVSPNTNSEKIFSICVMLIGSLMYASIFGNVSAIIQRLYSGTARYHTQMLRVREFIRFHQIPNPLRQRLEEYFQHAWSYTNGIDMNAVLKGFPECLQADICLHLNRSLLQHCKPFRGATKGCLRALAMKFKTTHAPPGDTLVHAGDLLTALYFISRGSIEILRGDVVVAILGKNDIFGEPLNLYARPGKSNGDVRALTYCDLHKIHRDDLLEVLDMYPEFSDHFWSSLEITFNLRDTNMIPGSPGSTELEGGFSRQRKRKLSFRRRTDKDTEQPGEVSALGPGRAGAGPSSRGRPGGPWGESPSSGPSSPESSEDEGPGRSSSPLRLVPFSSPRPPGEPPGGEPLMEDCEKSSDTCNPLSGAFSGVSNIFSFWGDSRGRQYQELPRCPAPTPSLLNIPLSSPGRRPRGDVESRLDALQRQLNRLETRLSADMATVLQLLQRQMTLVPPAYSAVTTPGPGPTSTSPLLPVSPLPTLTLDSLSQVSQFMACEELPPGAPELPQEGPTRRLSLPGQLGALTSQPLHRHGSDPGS

Row | SMILES | IC50 [nM]
1 | CC(C)(C)NC(=O)C1c2cc(C#N)ccc2C(=O)N1Cc1ccccc1-c1ccccc1 (racemic) | > 33000
2 | CC(C)(C)NC(=O)C1c2c(O)cccc2C(=O)N1Cc1ccccc1-c1ccccc1 (racemic) | 28000
3 | CC(C)(C)NC(=O)C1c2ccccc2C(=O)N1Cc1ccc(F)cc1-c1ccccc1 (single isomer, unassigned) | > 32000
4 | CC(C)(C)NC(=O)C1c2ccccc2C(=O)N1Cc1ccc(F)cc1-c1ccccc1 (single isomer, unassigned; enantiomer 1) | > 33000
5 | CC(C)(C)NC(=O)C1c2ccccc2C(=O)N1Cc1cc(F)ccc1-c1ccc(F)cc1 (single isomer, unassigned; enantiomer 1) | > 33000
6 | CC(C)(C)NC(=O)C1c2ccccc2C(=O)N1Cc1ccccc1-c1ccccc1 (single isomer, unassigned; enantiomer 1) | > 33000
7 | CC(C)(C)NC(=O)C1c2ccccc2C(=O)N1Cc1cc(F)ccc1-c1ccccc1 (single isomer, unassigned; enantiomer 1) | > 33000
8 | CC(C)(C)NC(=O)C1c2ccccc2C(=O)N1Cc1cc(F)ccc1-c1ccc(F)cc1 (single isomer, unassigned; enantiomer 2) | > 33000
9 | CC(C)(C)NC(=O)C1c2ccccc2C(=O)N1Cc1ccccc1-c1ccc(F)c(F)c1 (single isomer, unassigned; enantiomer 2) | > 31000
10 | CC(C)(C)NC(=O)C1c2ccccc2C(=O)N1Cc1ccccc1-c1ccccc1 (single isomer, unassigned; enantiomer 2) | > 33000
11 | CC(C)(C)NC(=O)C1c2ccccc2C(=O)N1Cc1cc(F)ccc1-c1ccccc1 (single isomer, unassigned; enantiomer 2) | > 33000
12 | CC(C)(C)NC(=O)C1c2ccccc2C(=O)N1Cc1ccccc1-c1ccc(F)c(F)c1 (stereo in doubt; 16E1) | > 33000

Biological target: Potassium voltage-gated channel subfamily A member 5 (Homo sapiens, UniProt P22460)
Assay: Inhibition of human Kv1.5 channel by QPatch-clamp method
Conditions: not given

Potassium voltage-gated channel subfamily A member 5, sequence (P22460 whole entry): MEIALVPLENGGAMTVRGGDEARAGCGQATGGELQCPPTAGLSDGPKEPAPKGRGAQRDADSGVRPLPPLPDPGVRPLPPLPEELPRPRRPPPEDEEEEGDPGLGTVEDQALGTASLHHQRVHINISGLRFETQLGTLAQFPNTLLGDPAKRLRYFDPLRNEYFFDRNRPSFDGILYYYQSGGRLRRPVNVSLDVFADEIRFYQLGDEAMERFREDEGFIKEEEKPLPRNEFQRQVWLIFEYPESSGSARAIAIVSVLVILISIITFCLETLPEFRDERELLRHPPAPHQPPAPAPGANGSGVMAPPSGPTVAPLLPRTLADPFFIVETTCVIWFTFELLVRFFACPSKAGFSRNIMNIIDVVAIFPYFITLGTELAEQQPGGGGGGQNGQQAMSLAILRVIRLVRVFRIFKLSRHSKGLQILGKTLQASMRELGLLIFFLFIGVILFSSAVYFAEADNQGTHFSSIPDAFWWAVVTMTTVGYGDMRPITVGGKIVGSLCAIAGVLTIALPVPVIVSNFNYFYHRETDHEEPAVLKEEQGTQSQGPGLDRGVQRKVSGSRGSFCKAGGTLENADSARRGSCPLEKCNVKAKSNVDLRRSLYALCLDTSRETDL

Row | SMILES | IC50 [nM]
13 | CC(C)(CN1C(=O)c2ccccc2C1C(=O)NCCCC(F)F)c1ccc(F)cc1 (stereo not drawn) | 600
14 | Cc1c(O)ccc2c1C(=O)N(Cc1ccccc1-c1ccc(F)c(F)c1)C2C(=O)NC(C)(C)C (stereo not drawn) | 3500
15 | CC(C)(CN1C(=O)c2ccccc2C1C(=O)NCC(F)F)c1ccc(F)cc1 (stereo not drawn) | 1200
16 | CCCCNC(=O)C1c2ccccc2C(=O)N1CC(C)(O)c1ccc(Cl)cc1 (stereo not drawn) | 1200
17 | COc1ccc2c(c1C)C(=O)N(Cc1ccccc1-c1ccccc1)C2C(=O)NC(C)(C)C (racemic) | 800
18 | CCCCNC(=O)C1c2ccccc2C(=O)N1CC(C)c1ccc(F)cc1 (racemic) | 900
19 | Cc1c(OCF)ccc2c1C(=O)N(Cc1ccccc1-c1ccccc1)C2C(=O)NC(C)(C)C (racemic) | 1300
20 | CC(C)(C)NC(=O)C1c2cc(C#N)ccc2C(=O)N1Cc1ccccc1-c1ccccc1 (racemic) | 3300
21 | CC(C)(C)NC(=O)C1c2c(O)cccc2C(=O)N1Cc1ccccc1-c1ccccc1 (racemic) | 2100
22 | CC(CN1C(=O)c2ccccc2C1C(=O)NCC(F)F)c1ccc(Cl)cc1 (racemic) | 1200
23 | CC(C)(C)NC(=O)C1c2ccccc2C(=O)N1Cc1ccc(F)cc1-c1ccccc1 (single isomer, unassigned) | 1700
24 | CC(C)(C)NC(=O)C1c2ccccc2C(=O)N1Cc1ccc(F)cc1-c1ccccc1 (single isomer, unassigned; enantiomer 1) | 800
25 | CC(C)(C)NC(=O)C1c2ccccc2C(=O)N1Cc1cc(F)ccc1-c1ccc(F)cc1 (single isomer, unassigned; enantiomer 1) | 2000
26 | CC(C)(C)NC(=O)C1c2ccccc2C(=O)N1Cc1cc(F)ccc1-c1ccccc1 (single isomer, unassigned; enantiomer 1) | 1400
27 | CC(C)(C)NC(=O)C1c2ccccc2C(=O)N1Cc1cc(F)ccc1-c1ccc(F)cc1 (single isomer, unassigned; enantiomer 2) | 900
28 | CC(C)(CN1C(=O)c2ccccc2C1C(=O)NCCCF)c1ccc(Cl)cc1 (single isomer, unassigned; enantiomer 2) | 1000
29 | CC(C)(C)NC(=O)C1c2ccccc2C(=O)N1Cc1ccccc1-c1ccc(F)c(F)c1 (single isomer, unassigned; enantiomer 2) | 1100
30 | CC(C)(C)NC(=O)C1c2ccccc2C(=O)N1Cc1cc(F)ccc1-c1ccccc1 (single isomer, unassigned; enantiomer 2) | 1600
31 | CCCNC(=O)C1c2ccccc2C(=O)N1CC(C)c1ccc(Cl)cc1 (single isomer, unassigned; isomer 2) | 700
32 | CC(C)(C)NC(=O)C1c2ccccc2C(=O)N1Cc1ccccc1-c1ccc(F)c(F)c1 (stereo in doubt; 16E1) | 1500
33 | CC(C)(CN1C(=O)c2ccccc2C1C(=O)NCCCF)c1ccc(Cl)cc1 (stereo in doubt; 23) | 500

Tested on: not listed separately
Assay: Lipophilicity, log D of the compound by HPLC analysis
Format: physicochemical
Conditions: not given

Row | SMILES | logD
34 | CCCNC(=O)C1c2ccccc2C(=O)N1CC(C)c1ccc(Cl)cc1 (single isomer, unassigned; isomer 2) | 3.9
35 | CC(C)(CN1C(=O)c2ccccc2C1C(=O)NCCCF)c1ccc(Cl)cc1 (stereo in doubt; 23) | 4

Same assay, conditions: read-out: logD

Row | SMILES | logD
36 | CC(C)(CN1C(=O)c2ccccc2C1C(=O)NCCCC(F)F)c1ccc(F)cc1 (stereo not drawn) | 4.1
37 | Cc1c(O)ccc2c1C(=O)N(Cc1ccccc1-c1ccc(F)c(F)c1)C2C(=O)NC(C)(C)C (stereo not drawn) | 4.6
38 | CC(C)(CN1C(=O)c2ccccc2C1C(=O)NCC(F)F)c1ccc(F)cc1 (stereo not drawn) | 3.7
39 | CCCCNC(=O)C1c2ccccc2C(=O)N1CC(C)(O)c1ccc(Cl)cc1 (stereo not drawn) | 3.5
40 | COc1ccc2c(c1C)C(=O)N(Cc1ccccc1-c1ccccc1)C2C(=O)NC(C)(C)C (racemic) | 5.6
41 | CCCCNC(=O)C1c2ccccc2C(=O)N1CC(C)c1ccc(F)cc1 (racemic) | 4.1
42 | Cc1c(OCF)ccc2c1C(=O)N(Cc1ccccc1-c1ccccc1)C2C(=O)NC(C)(C)C (racemic) | 5.6
43 | CC(C)(C)NC(=O)C1c2cc(C#N)ccc2C(=O)N1Cc1ccccc1-c1ccccc1 (racemic) | 4.7
44 | CC(C)(C)NC(=O)C1c2c(O)cccc2C(=O)N1Cc1ccccc1-c1ccccc1 (racemic) | 4.6
45 | CC(CN1C(=O)c2ccccc2C1C(=O)NCC(F)F)c1ccc(Cl)cc1 (racemic) | 3.7
46 | CC(C)(C)NC(=O)C1c2ccccc2C(=O)N1Cc1ccc(F)cc1-c1ccccc1 (single isomer, unassigned; enantiomer 1) | 5.2
47 | CC(C)(C)NC(=O)C1c2ccccc2C(=O)N1Cc1cc(F)ccc1-c1ccc(F)cc1 (single isomer, unassigned; enantiomer 1) | 5.3
48 | CC(C)(C)NC(=O)C1c2ccccc2C(=O)N1Cc1cc(F)ccc1-c1ccccc1 (single isomer, unassigned; enantiomer 1) | 5.2
49 | CC(C)(C)NC(=O)C1c2ccccc2C(=O)N1Cc1ccccc1-c1ccc(F)c(F)c1 (stereo in doubt; 16E1) | 5

Tested on: Liver microsome
Assay: (§1) Intrinsic clearance in human liver microsomes
Format: ADME
Conditions: microsomes

Row | SMILES | CLH [µL/min/mg]
50 | CC(C)(C)NC(=O)C1c2ccccc2C(=O)N1Cc1ccc(F)cc1-c1ccccc1 (single isomer, unassigned) | 62
51 | CC(C)(C)NC(=O)C1c2ccccc2C(=O)N1Cc1cc(F)ccc1-c1ccc(F)cc1 (single isomer, unassigned; enantiomer 2) | 41
52 | CC(C)(CN1C(=O)c2ccccc2C1C(=O)NCCCF)c1ccc(Cl)cc1 (single isomer, unassigned; enantiomer 2) | 19
53 | CC(C)(C)NC(=O)C1c2ccccc2C(=O)N1Cc1ccccc1-c1ccc(F)c(F)c1 (single isomer, unassigned; enantiomer 2) | 103
54 | CC(C)(C)NC(=O)C1c2ccccc2C(=O)N1Cc1cc(F)ccc1-c1ccccc1 (single isomer, unassigned; enantiomer 2) | 96
55 | CCCNC(=O)C1c2ccccc2C(=O)N1CC(C)c1ccc(Cl)cc1 (single isomer, unassigned; isomer 2) | 183
56 | CC(C)(C)NC(=O)C1c2ccccc2C(=O)N1Cc1ccccc1-c1ccc(F)c(F)c1 (stereo in doubt; 16E1) | 38
57 | CC(C)(CN1C(=O)c2ccccc2C1C(=O)NCCCF)c1ccc(Cl)cc1 (stereo in doubt; 23) | < 12

Tested on: not listed separately
Assay: as §1
Format: ADME
Conditions: liver microsomes, read-out: CLH

Row | SMILES | microsomal CLint [µL/min/mg]
58 | CC(C)(CN1C(=O)c2ccccc2C1C(=O)NCCCC(F)F)c1ccc(F)cc1 (stereo not drawn) | 23
59 | Cc1c(O)ccc2c1C(=O)N(Cc1ccccc1-c1ccc(F)c(F)c1)C2C(=O)NC(C)(C)C (stereo not drawn) | < 12
60 | CC(C)(CN1C(=O)c2ccccc2C1C(=O)NCC(F)F)c1ccc(F)cc1 (stereo not drawn) | < 12
61 | CCCCNC(=O)C1c2ccccc2C(=O)N1CC(C)(O)c1ccc(Cl)cc1 (stereo not drawn) | 64
62 | COc1ccc2c(c1C)C(=O)N(Cc1ccccc1-c1ccccc1)C2C(=O)NC(C)(C)C (racemic) | > 100
63 | CCCCNC(=O)C1c2ccccc2C(=O)N1CC(C)c1ccc(F)cc1 (racemic) | 180
64 | Cc1c(OCF)ccc2c1C(=O)N(Cc1ccccc1-c1ccccc1)C2C(=O)NC(C)(C)C (racemic) | > 100
65 | CC(C)(C)NC(=O)C1c2cc(C#N)ccc2C(=O)N1Cc1ccccc1-c1ccccc1 (racemic) | > 100
66 | CC(C)(C)NC(=O)C1c2c(O)cccc2C(=O)N1Cc1ccccc1-c1ccccc1 (racemic) | > 100
67 | CC(CN1C(=O)c2ccccc2C1C(=O)NCC(F)F)c1ccc(Cl)cc1 (racemic) | 73
68 | CC(C)(C)NC(=O)C1c2ccccc2C(=O)N1Cc1ccc(F)cc1-c1ccccc1 (single isomer, unassigned; enantiomer 1) | 58
69 | CC(C)(C)NC(=O)C1c2ccccc2C(=O)N1Cc1cc(F)ccc1-c1ccc(F)cc1 (single isomer, unassigned; enantiomer 1) | 49
70 | CC(C)(C)NC(=O)C1c2ccccc2C(=O)N1Cc1cc(F)ccc1-c1ccccc1 (single isomer, unassigned; enantiomer 1) | 102

Tested on: Mus musculus
Assay: In vivo inhibition of Kv1.5 channel in BaLBc mouse assessed as unbound steady-state plasma concentration required to increase QT-interval by 30% at 20 umol/kg,iv for 15 mins
Format: functional
Conditions: not given

Row | SMILES | Activity [µM]
71 | CC(C)(CN1C(=O)c2ccccc2C1C(=O)NCC(F)F)c1ccc(F)cc1 (stereo not drawn) | 1.6
72 | CC(C)(C)NC(=O)C1c2ccccc2C(=O)N1Cc1ccc(F)cc1-c1ccccc1 (single isomer, unassigned; enantiomer 1) | 0.054
73 | CC(C)(C)NC(=O)C1c2ccccc2C(=O)N1Cc1cc(F)ccc1-c1ccc(F)cc1 (single isomer, unassigned; enantiomer 1) | 0.055
74 | CC(C)(C)NC(=O)C1c2ccccc2C(=O)N1Cc1cc(F)ccc1-c1ccccc1 (single isomer, unassigned; enantiomer 1) | 0.079
75 | CC(C)(C)NC(=O)C1c2ccccc2C(=O)N1Cc1cc(F)ccc1-c1ccc(F)cc1 (single isomer, unassigned; enantiomer 2) | 0.28
76 | CCCNC(=O)C1c2ccccc2C(=O)N1CC(C)c1ccc(Cl)cc1 (single isomer, unassigned; isomer 2) | 0.4
77 | CC(C)(C)NC(=O)C1c2ccccc2C(=O)N1Cc1ccccc1-c1ccc(F)c(F)c1 (stereo in doubt; 16E1) | 0.066
78 | CC(C)(CN1C(=O)c2ccccc2C1C(=O)NCCCF)c1ccc(Cl)cc1 (stereo in doubt; 23) | 1.3
